According to patent US20210137913A1, “THERAPEUTIC AGENT FOR ASPIRATION PNEUMONIA, LUNG SUPPURATION, OR LUNG ABSCESS” (KYORIN PHARMACEUTICAL CO., LTD., priority 2017, published 2021):

Tests used:
anaerobic bacteria = details: Non Patent Literature 2; cited from earlier work
[1] = test system: subjects suspected of having aspiration pneumonia; assay: Test Example 1: clinical efficacy in aspiration pneumonia; assay type: in vivo, human
Method: (§1) The investigational new drug A was administered intravenously for 7 to 14 days to 13 subjects suspected of having aspiration pneumonia meeting the following criteria.
A clear infiltrative shadow appearing acutely on chest X-rays or CT images taken within 48 hours before the start of administration at the age of 16 years or older, is observed.
Confirmation of clear aspiration, choking or dysphagia, has a disease or history of disease with potential dysphagia.
(§2) The patient presents with symptoms and inflammation that are characteristic of aspiration pneumonia. On the first day of the start of administration, two doses of investigational new drug A (300 mg/day) were used, and on the second day of administration, one dose of investigational new drug A (150 mg/day) was used, and then the same dose (150 mg/day) was maintained. The administration of the injection was performed intravenously over about 1 hour per dose.
(§3) The clinical efficacy of Test Examples 1 and 2 were determined by setting the following criteria, based on the criteria for clinical efficacy of pneumonia described in Clinical evaluation method of new antibacterial drugs in respiratory infections (2nd edition), Japanese Journal of Chemotherapy. 2012; 60(1): 30-45. 9). The primary endpoint was the efficacy rate at the end of administration or discontinuation of investigational new drug A.
(§4) The end of administration herein means the evaluation date on the day after the administration of the investigational new drug A is completed. Moreover, the time of discontinuation means the date on which the evaluation was performed within 3 days from the last administration date or the discontinuation judgment date of the investigational new drug A. Furthermore, “the end of administration or the time of discontinuation” is expressed as End of Treatment (EOT). In addition, CRP is an abbreviation for C-reactive protein, and is one of the acute phase reactants produced in a short time in response to various inflammations. It is a useful index for the observation of therapeutic effects since it increases in a few hours in bacterial infections such as pneumonia and decreases rapidly as the inflammation subsides.
(§5) “Early therapeutic effect” was defined as a case in which significant improvement is observed 3 days after administration (regardless of whether administration was completed or continued after 4 days).
(§6) Samples for microbiological evaluation were collected before starting an appropriate alternative antibacterial treatment.
(§7) In addition, if the discontinuation date is the start date of administration (day 0) or the second day of administration (day 1), the determination of early drug efficacy was regarded as unnecessary. In the case of the third day of administration (day 2) or later, it was determined using the test results at the time of discontinuation.
(§8) When the treatment was discontinued after the next day after the end of the administration, the clinical efficacy at the end of the administration was determined, and the determination of the clinical efficacy at the time of discontinuation was not required. In addition, it was judged as “Ineffective” when the treatment was discontinued or when it was changed to an alternative antibacterial treatment after the end of administration of the investigational new drug. […] When changing to an alternative antibacterial treatment, in principle, prescribed tests, examinations and judgments at the end of treatment were made before the change.
(§9) The efficacy rate is the value obtained by the following formula.
(§10) Efficacy rate=(number of subjects rated as “Effective”[…]number of subjects rated as “Effective” or “Ineffective”)×100(%)

[2] = test system: subjects suspected of having lung suppuration or lung abscess; assay: Test Example 2: clinical efficacy in lung suppuration or lung abscess; assay type: in vivo, human
Method: (§11) The investigational new drug A was administered intravenously for 7 to 14 days to 11 subjects suspected of having lung suppuration or lung abscess meeting the following criteria.
On chest X-rays or CT images taken within 48 hours before the start of administration at the age of 16 years or older, a massive shadow or a shadow with cavities inside (nodular shadow, mass shadow) is observed. Regardless of the presence of a niveau due to pus accumulation.
The patient presents with symptoms and inflammation that are characteristic of lung suppuration or lung abscess.
(§12) On the first day of the start of administration, two doses of investigational new drug A (300 mg/day) were used, and on the second day of administration, one dose of investigational new drug A (150 mg/day) was used, and then the same dose (150 mg/day) was maintained. The administration of the injection was performed intravenously over about 1 hour per dose.
as §3, §4, §5, §6, §7, §8, §9, §10

Anaerobe [3] = assay: Microbiological efficacy according to the causative bacteria (Aspiration pneumonia); assay type: in vivo
Method: as §1, §2, §6
(§13) Table 4 and Table 5 show the microbiological efficacy of Test Examples 1 and 2 according to the causative bacteria.

[4] = test system: genus Parvimonas P. micra; assay: as above; assay type: in vivo; details: case number 1
Method: as §1, §2, §6, §13

[5] = test system: genus Actinomyces A. odontolyticus; assay: as above; assay type: in vivo; details: case number 1
Method: as §1, §2, §6

[6] = test system: genus Bacteroides Bacteroides sp.; assay: as above; assay type: in vivo; details: case number 2
Method: as §1, §2, §6

[7] = test system: genus Prevotella P. buccae; assay: as above; assay type: in vivo; details: case number 1
Method: as §1, §2, §6

[8] = test system: genus Prevotella P. intermedia; assay: as above; assay type: in vivo; details: case number 1
Method: as §1, §2, §6

[9] = test system: genus Prevotella Prevotella sp.; assay: as above; assay type: in vivo; details: case number 6
Method: as §1, §2, §6

[10] = test system: genus Veillonella Veillonella sp.; assay: as above; assay type: in vivo; details: case number 7
Method: as §1, §2, §6

Anaerobe [11] = assay: Microbiological efficacy according to the causative bacteria (Lung suppuration/lung abscess); assay type: in vivo
Method: as §11, §12, §6, §13

[12] = test system: genus Parvimonas P. micra; assay: as above; assay type: in vivo; details: case number 2
Method: as §11, §12, §6, §13

[13] = test system: genus Bacteroide B. fragilis; assay: as above; assay type: in vivo; details: case number 1
Method: as §11, §12, §6

[14] = test system: genus Fusobacterium F. necrophorum; assay: as above; assay type: in vivo; details: case number 1
Method: as §11, §12, §6

[15] = test system: genus Fusobacterium F. nucleatum; assay: as above; assay type: in vivo; details: case number 4
Method: as §11, §12, §6

[16] = test system: genus Leptotrichia Leptotrichia buccalis; assay: as above; assay type: in vivo; details: case number 1
Method: as §11, §12, §6

[17] = test system: genus Porphyromonas P. gingivalis; assay: as above; assay type: in vivo; details: case number 1
Method: as §11, §12, §6

[18] = test system: genus Prevotella P. intermedia; assay: as above; assay type: in vivo; details: case number 1
Method: as §11, §12, §6

[19] = test system: genus Prevotella P. melaninogenica; assay: as above; assay type: in vivo; details: case number 1
Method: as §11, §12, §6

[20] = test system: genus Prevotella P. oralis; assay: as above; assay type: in vivo; details: case number 1
Method: as §11, §12, §6

[21] = test system: genus Prevotella Prevotella sp.; assay: as above; assay type: in vivo; details: case number 1
Method: as §11, §12, §6

[22] = test system: genus Veillonella Veillonella sp.; assay: as above; assay type: in vivo; details: case number 2
Method: as §11, §12, §6

[23] = Test Example 1, aspiration pneumonia, 3 days after administration, number of subjects
[24] = Test Example 1, aspiration pneumonia, EOT, number of subjects
[25] = conclusion from Table 2 and Table 3
[26] = Test Example 2, lung suppuration or lung abscess, 3 days after administration, number of subjects
[27] = Test Example 2, lung suppuration or lung abscess, EOT, number of subjects
[28] = aspiration pneumonia, Anaerobe total, case number 19
[29] = lung suppuration/lung abscess, Anaerobe total, case number 16

## O=C(O)c1cn(C2CC2)c2cc(N3CCNCC3)c(F)cc2c1=O [ciprofloxacin]
Anaerobic bacteria
  antibacterial activity against anaerobic bacteria (in words): insufficient antibacterial activity

## COc1c(N2C[C@H](CNC3CC3)[C@H](F)C2)c(F)cc2c(=O)c(C(=O)O)cn(CCF)c12 [investigational new drug A, 7-[(3S,4S)-3-{(cyclopropylamino)methyl}-4-fluoropyrrolidin-1-yl]-6-fluoro-1-(2-fluoroethyl)-8-methoxy-4-oxo-1,4-dihydroquinoline-3-carboxylic acid]
[1]; Test Example 1, aspiration pneumonia, 13 subjects, i.v. 300 mg day 1 then 150 mg/day, 3 days after administration, number of subjects
  Early drug efficacy evaluation, Clinical efficacy: Effective: 12
[1]; Test Example 1, aspiration pneumonia, 3 days after administration
  Early drug efficacy evaluation: Efficacy rate: 92%
[1]; [23]
  Early drug efficacy evaluation, Clinical efficacy: Ineffective: 1
  Early drug efficacy evaluation, Clinical efficacy: Undeterminable: 0
[1]; Test Example 1, aspiration pneumonia, EOT
  End of Treatment: Efficacy rate: 100%
[1]; Test Example 1, aspiration pneumonia, EOT, listed as 7-[(3S,4S)-3-{(cyclopropylamino)methyl}-4-fluoropyrrolidin-1-yl]-6-fluoro-1-(2-f)
  End of Treatment: Efficacy rate: 100%
[1]; [24]
  End of Treatment, Clinical efficacy: Ineffective: 0
  End of Treatment, Clinical efficacy: Undeterminable: 1
[1]; Test Example 1, aspiration pneumonia, end of administration or discontinuation (EOT), number of subjects
  End of Treatment, Clinical efficacy: Effective: 12
[1]; [25]
  therapeutic effect on aspiration pneumonia (in words): high therapeutic effect
[2]; Test Example 2, lung suppuration or lung abscess, 11 subjects, i.v. 300 mg day 1 then 150 mg/day, 3 days after administration, number of subjects
  Early drug efficacy evaluation, Clinical efficacy: Effective: 9
[2]; Test Example 2, lung suppuration or lung abscess, 3 days after administration
  Early drug efficacy evaluation: Efficacy rate: 82%
[2]; [26]
  Early drug efficacy evaluation, Clinical efficacy: Ineffective: 2
  Early drug efficacy evaluation, Clinical efficacy: Undeterminable: 0
[2]; Test Example 2, lung suppuration or lung abscess, EOT
  End of Treatment: Efficacy rate: 91%
[2]; Test Example 2, lung suppuration or lung abscess, EOT, listed as 7-[(3S,4S)-3-{(cyclopropylamino)methyl}-4-fluoropyrrolidin-1-yl]-6-fluoro-1-(2-f)
  End of Treatment: Efficacy rate: 91%
[2]; [27]
  End of Treatment, Clinical efficacy: Effective: 10
  End of Treatment, Clinical efficacy: Ineffective: 1
  End of Treatment, Clinical efficacy: Undeterminable: 0
[2]; [25]
  therapeutic effect on lung suppuration or lung abscess (in words): high therapeutic effect
Anaerobe [3]; [28]
  Result: Eradicated: 17
  Result: Persisted: 2
Anaerobe [3]; conclusion from Table 4
  antibacterial effect on the causative bacteria of aspiration pneumonia (in words): high antibacterial effect
[4]
  Result: Eradicated: 1
  Result: Persisted: 0
[5]
  Result: Eradicated: 1
  Result: Persisted: 0
[6]
  Result: Eradicated: 2
  Result: Persisted: 0
[7]
  Result: Eradicated: 1
  Result: Persisted: 0
[8]
  Result: Eradicated: 1
  Result: Persisted: 0
[9]
  Result: Eradicated: 6
  Result: Persisted: 0
[10]
  Result: Eradicated: 5
  Result: Persisted: 2
Anaerobe [11]; conclusion from Table 5
  antibacterial effect on the causative bacteria of lung suppuration or lung abscess (in words): high antibacterial effect
Anaerobe [11]; [29]
  Result: Eradicated: 15
  Result: Persisted: 1
[12]
  Result: Eradicated: 2
  Result: Persisted: 0
[13]
  Result: Eradicated: 1
  Result: Persisted: 0
[14]
  Result: Eradicated: 1
  Result: Persisted: 0
[15]
  Result: Eradicated: 4
  Result: Persisted: 0
[16]
  Result: Eradicated: 1
  Result: Persisted: 0
[17]
  Result: Eradicated: 1
  Result: Persisted: 0
[18]
  Result: Eradicated: 0
  Result: Persisted: 1
[19]
  Result: Eradicated: 1
  Result: Persisted: 0
[20]
  Result: Eradicated: 1
  Result: Persisted: 0
[21]
  Result: Eradicated: 1
  Result: Persisted: 0
[22]
  Result: Eradicated: 2
  Result: Persisted: 0

## C[C@H]1COc2c(C3(N)CC3)c(F)cc3c(=O)c(C(=O)O)cn1c23 [pazufloxacin]
Anaerobic bacteria
  antibacterial activity against anaerobic bacteria (in words): insufficient antibacterial activity
